“And” between values parts separate entries of the source, which are not always exact repeats. Identical values can stand only once.
Molecular target: T1, human TAS2R39 (Homo sapiens, UniProt P59534)
T1 construct: expressed in transfected cells; host or cells: HEK293T-Gα16gust44
T1 sequence (P59534 1-338): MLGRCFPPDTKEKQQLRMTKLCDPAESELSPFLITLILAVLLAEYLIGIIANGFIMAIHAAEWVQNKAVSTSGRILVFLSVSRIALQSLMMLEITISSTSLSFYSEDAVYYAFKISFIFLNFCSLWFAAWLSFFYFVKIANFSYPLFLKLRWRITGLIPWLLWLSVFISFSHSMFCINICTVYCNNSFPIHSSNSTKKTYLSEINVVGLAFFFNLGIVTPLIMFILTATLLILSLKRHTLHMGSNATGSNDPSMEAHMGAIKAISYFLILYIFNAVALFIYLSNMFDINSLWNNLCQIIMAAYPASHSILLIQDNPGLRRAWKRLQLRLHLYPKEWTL
Assay: Calcium imaging assay (FLIPR), HEK293T-Gα16gust44 cells transfected with human TAS2R39
Assay type: cell-based
Settings: for Efficacy = maximal amplitude (ΔF/F) / Efficacy (maximal amplitude ΔF/F), individual data points / Δ F/F: TAS2R39; for Efficacy = maximal amplitude (ΔF/F) / Efficacy (maximal amplitude ΔF/F), individual data points: bile acids; for Efficacy = maximal amplitude (ΔF/F): mean; for Efficacy (maximal amplitude ΔF/F), individual data points: single replicates; for Activation threshold concentration TAS2R39: lowest concentration with significantly increased fluorescence vs empty vector (p < 0.01)
Protocol: This set of bile acids was chosen because of their commercial availability in high purities, their diversity within the class of bile acids and their previous detection and quantitation in human blood. Stock solutions were prepared in DMSO.
As basal growth medium for the HEK293T-Gα16gust44 cell line[17],[59] served Dulbecco’s modified eagle medium (DMEM) (Thermo Fisher Scientific, Darmstadt, Germany) supplemented with 10 % fetal bovine serum (Sigma-Aldrich, Steinheim, Germany), 2 mM L-glutamine (Sigma-Aldrich, Steinheim, Germany), 100 units/ml penicillin (Sigma Aldrich, Steinheim, Germany) and 100 µg/ml streptomycin (Sigma Aldrich, Steinheim, Germany). Growth conditions were 37 °C, 5 % CO2 and saturated air-humidity[60].
HEK293T-Gα16gust44 cells were seeded on poly-D-lysine (10 µg/ml) coated 96-well plates to reach a confluence of 40-60 % the next day. For transient transfection 150 ng of plasmid DNA containing the receptor of interest and 0.3 µl lipofectamine 2000 (Thermo Fisher Scientific, Darmstadt, Germany) per well were used and transfection took place according to the manual of lipofectamine 2000. […] The empty vector DNA (mock) was transfected as negative control[14],[41].
Cells were loaded using the calcium-sensitive fluorescent dye Fluo-4-AM (Abcam, Cambridge, Great Britain) in the presence of 2.5 mM probenecid (Sigma-Aldrich, Steinheim, Germany) the day after transfection[13],[41]. 1 h after loading, cells were washed with C1 buffer using a BioTek Cell Washer, incubated in the dark for half an hour and washed again. For automated agonist application and measurement of fluorescence changes, a FLIPR^TETRA device (Molecular Devices, San José, United States) was used. Viability of cells was tested by application of 100 nM Somatostatin 14 (Bachem, Bubendorf, Switzerland)[42].
Measured data were negative control corrected by subtracting the signal of the mock-transfected cells and exported to Microsoft Excel using the FLIPR software ScreenWorks 4.2. In Microsoft Excel software, standardization of maximum fluorescence intensities to the basal fluorescence and normalization to the buffer-only control was done to calculate the relative fluorescence changes (ΔF/F).
Initial screening experiments performed in duplicate wells were confirmed by at least one replication and representative traces were selected for display. All dose-response relationships were determined by three independent experiments (biological replicates) performed in duplicates (technical replicates). Threshold concentrations, defined as lowest substance concentrations leading to statistically significant elevated fluorescence changes in receptor-transfected cells compared with empty vector-transfected cells, were determined using SigmaPlot with Student’s t-test to evaluate statistical significance (p < 0.01).

Structure (SMILES) | Efficacy = maximal amplitude (ΔF/F) | Efficacy (maximal amplitude ΔF/F), individual data points (listed as CA) | Activation threshold concentration TAS2R39 [µM] | Δ F/F (Conc. 0,01 mM) | Δ F/F (Conc. 0,1 mM) | Δ F/F (Conc. 0,03 mM) | Δ F/F (Conc. 0,3 mM) | Δ F/F (Conc. 0,001 mM) | Δ F/F (Conc. 1 mM) | Δ F/F (Conc. 0,003 mM) | Efficacy (maximal amplitude ΔF/F), individual data points (listed as GCA) | Efficacy (maximal amplitude ΔF/F), individual data points (listed as TCA)
C[C@H](CCC(=O)O)[C@H]1CC[C@H]2[C@@H]3[C@H](O)C[C@@H]4C[C@H](O)CC[C@]4(C)[C@H]3C[C@H](O)[C@]12C [Cholic Acid, cholic acid] | 0.2007 | 0.15 and 0.2304 and 0.2216 | 300 | – | – | – | – | – | – | – | – | –
C[C@H](CCC(=O)NCC(=O)O)[C@H]1CC[C@H]2[C@@H]3[C@H](O)C[C@@H]4C[C@H](O)CC[C@]4(C)[C@H]3C[C@H](O)[C@]12C [Glycocholic Acid, glycocholic acid] | 0.1303 | – | 300 | 0.001299 | 0.005941 | 0.007895 | 0.02136 | 0.004486 | 0.1303 | 0.004867 | 0.1116 and 0.125 and 0.1542 | –
C[C@H](CCC(=O)NCCS(=O)(=O)O)[C@H]1CC[C@H]2[C@@H]3[C@H](O)C[C@@H]4C[C@H](O)CC[C@]4(C)[C@H]3C[C@H](O)[C@]12C [Taurocholic Acid, taurocholic acid] | 0.155 | – | 300 | 0.002616 | 0.007681 | 0.00381 | 0.02945 | -0.001111 | 0.155 | 0.0008114 | – | 0.1385 and 0.1739 and 0.1528

From article PMC10247784, “Physiological activation of human and mouse bitter taste receptors by bile acids” (Communications Biology, 2023)
